{
  "source": "patent EP1541694A1",
  "about": "“Methods of identifying, selecting and/or characterizing compounds which modulate the activity of a Src family kinase” (Sirenade Pharmaceuticals AG, priority 2003, dated 2005)",
  "type_in_all_cases": "cell-based, human",
  "key": {"[1]": {"tested_on": "Src-YF expressing ZM77 cell lines", "experiment": "Suppression of tet-induced phenotype changes, evaluated by eye/microscope, normal cell culture plates", "settings": "adherent, serum-containing medium", "method": "(§1) Phenotype changes -tet → +tet were evaluated in 24-well plates (Nunc; cat.no. 143982) under the following several different growth conditions to identify the strongest possible response (Δpt(-tet→+tet)max) 1. full (10% serum containing) growth medium a) without any growth factor supplement (-), b) with epidermal growth factor (EGF; 100ng/ml) (cat.no. 115, Research Diagnostics Inc. (RDI), Flanders, NJ, USA) or c) platelet derived growth factor type BB (PDGF-BB; 30ng/ml) (cat.no. 114b, RDI) or d) hepatocyte growth factor (HGF; 20ng/ml) (RDI, cat.no.300-010), or 2. serum-free medium a) - or b) +EGF or c) +PDGF or d) +HGF. In all cases, cells were first seeded into standard 24-well or 96-well plates (Nunc) in full growth medium. The cell number seeded per well was also varied to identify the most suitable cell densities producing Δpt(-tet→+tet)max. […]\n(§2) To that end, the test compounds PP1-Chr., PP2 (cat.no. 529573, Calbiochem) and SU6656 (cat.no. 572635, Calbiochem) (see Fig.9p for chemical structures) were individually added to the cells together with tet, and the development of the phenotype changes in the presence of these compounds was monitored subsequently in direct comparison with cells that received no compound or only vehicle (0.2% DMSO) together with tet induction. […]"}, "[2]": {"tested_on": "Src-KA expressing ZM76 cell lines", "experiment": "Suppression of tet-induced phenotype changes, evaluated by eye/microscope, normal cell culture plates", "settings": "adherent, serum-containing medium + EGF, PP1-Chr. and PP2 shown as combination", "method": "as §1, §2"}, "[3]": {"tested_on": "Src-TQ/YF expressing cell line ZM170.21", "experiment": "Suppression of tet-induced phenotype changes (cell scattering) in suspension, Ultra Low Attachment plates", "settings": "ZM170.21 (Src-TQ/YF) in suspension, Ultralow Attachment Plates", "method": "(§3) Cells were seeded into 24-well or 96-well \"Ultra Low Attachment\" plates (cat.no.: 3473, Costar Corning Corp., Acton, MA, USA). These plates are coated with a covalently bound hydrogel layer that prevents cellular attachment to the polystyrene surface of the wells. As the cells were not attached to these wells, a medium change was impossible here. However, the phenotypes were tested in full serum-containing medium in the absence or presence of EGF, PDGF-BB or HGF as detailed above. Tet-induction was also started the day after seeding.\n(§4) Largely irrespective of the cell numbers per well, the cells of all cell lines were in suspension and formed one or few very condensed/compact, opaque, rod-, disc- or kidney-shaped aggregates with a smooth surface, in which individual cells could not be discerned. Phenotype changes became apparent ~24 h after tet induction in ZM77 and ZM170 cell lines only, and Δpt(-tet →+tet)max was reached after ~2 days. In these cell lines Src-YF or Src-TQ/YF expression, respectively, induces scattering of the cells. Many cells are floating in the medium individually or in small clusters and the remaining large aggregate(s) are irregular-shaped and rather loose than compact; individual cells can easily be discerned and thus, the surfaces of these aggregates are rough as with bunches of grapes (Fig.14a,b). This biological response was readily observed with or without any of the above growth factors, wherefore normal growth medium without any additional growth factor was subsequently used in this assay type.\n(§5) To that end, the test compounds PP1-Chr., SU6656 and PP2 were individually added to the cells together with tet, and the development of the phenotype changes in the presence of these compounds was monitored subsequently in direct comparison with tet-induced cells that received no compound (Fig.14c-j). The compounds were also added to the cells without tet-induction of Src/ Src mutant expression as controls for non-specific/ toxicity effects. The experiments were performed with several ZM77 cell lines."}, "[4]": {"tested_on": "Src-YF expressing ZM77 cell lines", "experiment": "Suppression of tet-induced phenotype changes (cell scattering) in suspension, Ultra Low Attachment plates", "settings": "Ultralow Attachment Plates", "method": "as §3, §4, §5"}},
  "data": [
    {"smiles": "CC(C)(C)n1nc(-c2ccc(Cl)cc2)c2c(N)ncnc21", "note": "[PP2]", "values": [
      {"measurement": "suppression of tet-induced phenotype changes", "setting": "[1]", "result": "partially suppressed"},
      {"measurement": "suppression of tet-induced phenotype changes", "setting": "[2]", "result": "not able to suppress"},
      {"measurement": "suppression of tet-induced phenotype (cell scattering)", "setting": "[3]", "result": "largely ineffective"},
      {"measurement": "suppression of tet-induced phenotype changes (cell scattering)", "setting": "[4]", "result": "partially suppressed"}
    ]}
  ]
}
